Results taken from patent US12139473B2, “Substituted-N-heteroaryl compounds and uses thereof” (Bionomics Limited, priority 2019, dated 2024).

Legend:
hKv3.2 = molecular target: T1, hKv3.2 (Homo sapiens, UniProt Q96PR1); experiment: Automated patch clamp electrophysiology (Patchliner), CHO/Kv3.2 cells; assay type: cell-based; settings: 10 μM compound, hKv3.2 in CHO-K1, whole-cell; for activation at 10 µM: peak current at voltage step of −10 mV vs vehicle (0.33% DMSO), read-out: Kv3.2 Activity at 10 μM Potentiation (%); for Kv3.2 Activity at 10 μM Voltage Shift (mV): voltage shift of the IV curve at V1/2
T1 construct: expressed in transfected cells
T1 sequence (Q96PR1 1-638): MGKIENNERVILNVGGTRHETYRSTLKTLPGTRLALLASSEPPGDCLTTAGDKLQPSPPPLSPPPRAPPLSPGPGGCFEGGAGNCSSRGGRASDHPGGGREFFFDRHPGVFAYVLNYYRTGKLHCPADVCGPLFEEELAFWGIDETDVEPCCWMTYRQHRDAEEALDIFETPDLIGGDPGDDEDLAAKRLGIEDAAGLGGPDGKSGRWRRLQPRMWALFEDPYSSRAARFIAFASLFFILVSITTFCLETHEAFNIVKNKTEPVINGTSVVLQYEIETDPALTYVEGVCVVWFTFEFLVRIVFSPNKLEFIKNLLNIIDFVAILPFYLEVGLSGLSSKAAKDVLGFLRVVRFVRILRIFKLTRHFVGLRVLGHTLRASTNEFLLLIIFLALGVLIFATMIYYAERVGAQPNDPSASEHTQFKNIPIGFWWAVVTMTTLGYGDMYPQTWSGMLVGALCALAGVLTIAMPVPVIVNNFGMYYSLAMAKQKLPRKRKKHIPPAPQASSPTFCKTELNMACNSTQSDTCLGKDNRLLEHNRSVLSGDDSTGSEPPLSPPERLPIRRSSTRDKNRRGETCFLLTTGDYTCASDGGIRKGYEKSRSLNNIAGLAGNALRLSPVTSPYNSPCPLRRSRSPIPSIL
Description: (§1) hKv3.1, hKv3.2, hKv3.3, and hKv3.4 were stably expressed in CHO-K1 (Chinese hamster ovary) cells and kept under constant antibiotic selection. For in vitro assays, cells were maintained in appropriate growth medium at 37° C. and 5% CO2 in a humidified incubator.
(§2) hKv3.X expressing cells were plated in T-25 flasks for 3-4 days at 37° C. (no selection antibiotic) prior to use and grown to 80% confluence. Cells were washed twice with PBS (calcium and magnesium free) and detached with a 5-minute treatment at 37° C. with 2-3 mls of Accutase®. Cells were collected, and flask was washed in CHO-SFM II media (Life Technologies Gibco), centrifuged for 2 minutes at ˜110×g and resuspended to obtain a single cell suspension of ˜2-3×10^6 cells/ml.
(§3) The intracellular solution contained the following (in mM): KCl 50, NaCl 10, KF 60, EGTA 20, HEPES 10, adjusted to pH 7.2 with KOH and an osmolarity of 285 mOsmol. Seal enhancer was purchased from Nanion (80 mM NaCl, 3 mM KCl, 10 mM MgCl2, 35 mM CaCl2), 10 mM HEPES, pH7.4, 298 mOsmol. The external solution contained (in mM): NaCl 140, KCl 4, CaCl2) 2, MgCl2 1, HEPES 10, Glucose 5, adjusted to pH7.4 and an osmolarity of 298 mOsmol.
(§4) All compounds were initially tested at 10 uM at a final DMSO concentration of 0.33%. Compounds were dissolved in dimethylsulfoxide (DMSO) at a stock concentration of 30 mM. The compound was further diluted 1:10 to give a stock concentration of 3 mM in DMSO. The final assay solution was diluted 1:300 in External solution to give a final concentration of 10 uM. For the DMSO Control Buffer 30 uL of DMSO was added to 10 mL buffer.
(§5) All electrophysiological recordings were performed at ambient temperature (21-23° C.) using automated patch clamp (Patchliner, Nanion Technologies GmbH) in the whole-cell configuration.
(§6) Cell membrane potentials were held at −80 mV, and currents were evoked by voltage steps (1000 ms duration) from −60 to +60 mV in 10 mV increments. This was performed first with vehicle (0.33% DMSO) and then with 10 uM compound, after a 3-minute incubation period. Data was taken from 4 cells per assay.
(§7) The recordings were analysed and selected using peak current amplitude (>100 pA at the −10 mV voltage step) in the absence of compound to eliminate unsuitable cells from analysis. Peak current amplitude was measured and recorded for each voltage step and data was normalised to the maximum current at +60 mV. The normalised Kv3.x currents following addition of the compound were then compared with the currents recorded prior to compound addition (vehicle control). Positive modulation was determined as % potentiation at the voltage step of −10 mV=[current (cmpd)/current (veh)]*100−100. % potentiation≥50% was considered acceptable. In addition, voltage shift of the IV curve at V1/2 was measured. V1/2 of ≥−5 mV was also considered acceptable. IV curves were plotted in GraphPad Prism (software version 6.0) and fitted with a Boltzmann equation, where V1/2 is the voltage at half-maximal activation.

hKv3.1 = molecular target: T2, hKv3.1 (Homo sapiens, UniProt P48547); experiment: Automated patch clamp electrophysiology (Patchliner), CHO/Kv3.1 cells; assay type: cell-based; settings: 10 μM compound, hKv3.1 in CHO-K1, whole-cell; for Kv3.1 Activity at 10 μM Potentiation (%): peak current at voltage step of −10 mV vs vehicle (0.33% DMSO); for Kv3.1 Activity at 10 μM Voltage Shift (mV): voltage shift of the IV curve at V1/2
T2 construct: expressed in transfected cells
T2 sequence (P48547 1-511): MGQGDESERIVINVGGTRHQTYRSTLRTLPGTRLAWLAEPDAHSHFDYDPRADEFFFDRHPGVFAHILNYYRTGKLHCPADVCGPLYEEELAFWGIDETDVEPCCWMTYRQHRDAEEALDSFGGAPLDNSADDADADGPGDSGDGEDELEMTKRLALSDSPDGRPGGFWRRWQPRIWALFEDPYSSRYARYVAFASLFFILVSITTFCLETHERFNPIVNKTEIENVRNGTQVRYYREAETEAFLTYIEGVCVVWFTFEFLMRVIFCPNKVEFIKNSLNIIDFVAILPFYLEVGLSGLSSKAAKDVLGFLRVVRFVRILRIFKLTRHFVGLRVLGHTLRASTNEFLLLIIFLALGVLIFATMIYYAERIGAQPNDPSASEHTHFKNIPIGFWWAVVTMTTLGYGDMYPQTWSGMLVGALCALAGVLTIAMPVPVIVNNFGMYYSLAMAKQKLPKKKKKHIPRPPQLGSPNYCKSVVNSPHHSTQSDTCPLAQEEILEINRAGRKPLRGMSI
Description: as §1, §2, §3, §4, §5, §6, §7

Row | activation at 10 µM (hKv3.2) | Kv3.2 Activity at 10 μM Voltage Shift (mV) (hKv3.2) | Kv3.1 Activity at 10 μM Potentiation (%) (hKv3.1) | Kv3.1 Activity at 10 μM Voltage Shift (mV) (hKv3.1) | SMILES
1 | 25% | −4.3 mV | 45% | −5.5 mV | COc1cc(Oc2cc(N3C(=O)NC(C)(C)C3=O)ncn2)ccc1C [Example 1, 3-[6-(3-methoxy-4-methyl-phenoxy)pyrimidin-4-yl]-5,5-dimethyl-imidazolidine-2,4-dione]
2 | 86% | −9.2 mV | 40% | −2.7 mV | COc1cc(Oc2cc(N3C(=O)NC(C)(C)C3=O)ncn2)ccc1F [Example 13, 3-[6-(3-methoxy-4-fluoro-phenoxy)pyrimidin-4-yl]-5,5-dimethyl-imidazolidine-2,4-dione]
3 | 42% | −1.1 mV | 43% | −2.3 mV | COc1cc(Oc2cc(N3C(=O)NC4(CCCC4)C3=O)ncn2)ccc1F [Example 14, 3-[6-(4-fluoro-3-methoxy-phenoxy)pyrimidin-4-yl]-1,3-diazaspiro[4.4]nonane-2,4-dione]
4 | 1% | −0.3 mV | 17% | −2.7 mV | COc1cc(Oc2cc(N3C(=O)NC4(CCCCC4)C3=O)ncn2)ccc1F [Example 15, 3-[6-(4-fluoro-3-methoxy-phenoxy)pyrimidin-4-yl]-1,3-diazaspiro[4.5]decane-2,4-dione]
5 | 24% | −2.8 mV | 63% | −4.2 mV | Cc1ccc(Oc2cc(N3C(=O)NC(C)(C)C3=O)ncn2)cc1F [Example 16, 3-[6-(3-fluoro-4-methyl-phenoxy)pyrimidin-4-yl]-5,5-dimethyl-imidazolidine-2,4-dione]
6 | 54% | −4.9 mV | 36% | −2.8 mV | Cc1ccc(Oc2cc(N3C(=O)NC(C)(C)C3=O)ncn2)c2c1OCC21CC1 [Example 47, 5,5-dimethyl-3-[6-(7-methylspiro[2H-benzofuran-3,1′-cyclopropane]-4-yl)oxypyrimidin-4-yl]imidazolidine-2,4-dione]
7 | -7% | +1.6 mV | 2% | −1.5 mV | COc1cc(Oc2ccnc(N3C(=O)NC4(CCCCC4)C3=O)n2)ccc1C [Example 50, 3-[4-(3-methoxy-4-methyl-phenoxy)pyrimidin-2-yl]-1,3-diazaspiro[4.5]decane-2,4-dione]
8 | 49% | −6.0 mV | 52% | −4.0 mV | COc1cc(Oc2cncc(N3C(=O)NC(C)(C)C3=O)n2)ccc1C [Example 53, 3-[6-(3-methoxy-4-methyl-phenoxy)pyrazin-2-yl]-5,5-dimethyl-imidazolidine-2,4-dione]
9 |  |  | 16% | −3.9 mV | CC[C@H]1NC(=O)N(c2cc(Oc3ccc(C)c(OC)c3)ncn2)C1=O [Example 55, (5R)-5-ethyl-3-[6-(3-methoxy-4-methyl-phenoxy)pyrimidin-4-yl]imidazolidine-2,4-dione]
10 |  |  | −7% | +0.8 mV | CC[C@H]1NC(=O)N(c2nccc(Oc3ccc(C#N)cc3C(C)(C)C)n2)C1=O [Example 57, 3-tert-butyl-4-[2-[(4R)-4-ethyl-2,5-dioxo-imidazolidin-1-yl]pyrimidin-4-yl]oxy-benzonitrile]
11 |  |  | 22% | −1.1 mV | CC[C@H]1NC(=O)N(c2ccnc(Oc3ccc(C)c(OC)c3)n2)C1=O [Example 59, (5R)-5-ethyl-3-[2-(3-methoxy-4-methyl-phenoxy)pyrimidin-4-yl]imidazolidine-2,4-dione]
12 |  |  | 22% | −2.0 mV | COc1cc(Oc2ccnc(N3C(=O)NC(C)(C)C3=O)n2)ccc1C [Example 60, 3-[4-(3-methoxy-4-methyl-phenox)pyrimidin-2-yl]-5,5-dimethyl-imidazolidine-2,4-dione]
13 |  |  | 21% | −1.6 mV | CC(C)c1cc(Oc2ccnc(N3C(=O)NC(C)(C)C3=O)n2)ccc1C#N [Example 61, 4-[2-(4,4-dimethyl-2,5-dioxo-imidazolidin-1-yl)pyrimidin-4-yl]oxy-2-isopropyl-benzonitrile]
14 |  |  | 20% | −3.1 mV | CC[C@@]1(C)NC(=O)N(c2ccnc(Oc3ccc(C)c(OC)c3)n2)C1=O [Example 62, (5R)-5-ethyl-3-[2-(3-methoxy-4-methyl-phenoxy)pyrimidin-4-yl]-5-methyl-imidazolidine-2,4-dione]
15 |  |  | 34% | −1.8 mV | COc1cc(Oc2nccc(N3C(=O)NC(C)(C)C3=O)n2)ccc1F [Example 64, 3-[2-(3-methoxy-4-fluoro-phenoxy)pyrimidin-4-yl]-5,5-dimethyl-imidazolidine-2,4-dione]
16 | 54% | −3.5 mV |  |  | COc1cc(Oc2nccc(N3C(=O)NC(C)(C)C3=O)n2)ccc1Cl [Example 66, 3-[2-(4-chloro-3-methoxy-phenoxy)pyrimidin-4-yl]-5,5-dimethyl-imidazolidine-2,4-dione]
17 |  |  | 26% | −2.4 mV | COc1cc(Oc2cnnc(N3C(=O)NC(C)(C)C3=O)c2)ccc1C [Example 77, 3-[5-(3-methoxy-4-methyl-phenoxy)pyridazin-3-yl]-5,5-dimethyl-imidazolidine-2,4-dione]
